Assay results from paper PMC8961551, “Potential Anticancer Agents against Melanoma Cells Based on an As-Synthesized Thiosemicarbazide Derivative” (Biomolecules, 2022).
Like-named read-outs stand apart in the source and are kept apart here.

What was measured:
[1] = tested on: BJ normal fibroblast cell line; assay: MTT cytotoxicity, BJ normal fibroblasts; format: cell-based, human; conditions: for toxic to normal fibroblasts (MTT test): BJ, concentration range used; for IC50: MTT test
Experimental: Biological studies were performed on human malignant melanoma G-361 (ATCC CRL-1424) cell lines and human fibroblast BJ (ATCC® CRL-2522™) cell lines purchased from the American Type Culture Collection (ATCC, Manassas, VA USA). The G-361 cell lines were maintained in McCoy’s medium (Corning, NY, USA), and the fibroblast BJ cell line was cultured in EMEM (Corning, NY, USA). All media were supplemented with 10% heat-inactivated fetal bovine serum (PAN-Biotech, Aidenbach, Germany), 100 U/mL penicillin, 100 μg/mL streptomycin and 0.25 μg/mL amphotericin B (Sigma-Aldrich, St. Louis, MO, USA). Cultures were maintained at 37 °C in a humidified atmosphere of 95% air and 5% CO2. The experiments were performed using cells from passage 5 to 10.
The cytotoxicity of the new compounds was evaluated against both the G-361 and BJ cell lines. Cells were seeded into 96-well plates at a density of 3 × 10^4 cells/well and 2 × 10^4 cells/well. After 24 h of incubation, when 70–80% confluence was reached, the culture medium was removed and replaced with the fresh one containing the tested compounds in the concentration range of 10, 25, 50, 75, 100, 125 and 250 μM. Cells were cultured at 37 °C in the presence of 5% air with CO2 for another 24 h. The cytotoxicity of the test compounds was evaluated by the MTT colorimetric assay, based on the ability of live cells to convert yellow soluble tetrazolium salts (3-[4,5-dimethylthiazol-2-yl]- 2,5-diphenyltetrazolium bromide, MTT) to purple insoluble formazan by cellular dehydrogenase. After 24 h of incubation with solutions of the test compounds, 4 mg/mL MTT solution (Thermo Scientific, Waltham, MA, USA) was added to the cell cultures and incubation was continued for 4 h at 37 °C. The MTT medium was then removed, and the resulting crystals were dissolved in 200 µL of DMSO. The solution was measured for absorbance at 570 nm using a Power Wave xs spectrophotometric plate reader, BioTek Instruments (Winooski, VT, USA). The experiment was performed three times with three replicates for each concentration. IC50 values were determined using the AAT Bioquest IC50 calculator.

melanoma line G-361 [2] = assay: Intracellular thiol / reduced glutathione (GSH) content, VB-48 vitality assay; format: cell-based, human; conditions: G-361, 24 h, compound at IC50 concentration, representative histogram; quadrant not defined in legend
Experimental: Analyses of the levels of cellular thiols were performed using NC 3000 system (Chemometec., Lillerød, Denmark) according to the manufacturer’s protocol for the cell vitality assay. The G-361 cells were seeded in 12-well culture plates at a density of 1 × 10^5 cell/mL and the tested compounds in concentrations corresponding to IC50 value were added when 70–80% of confluence was achieved. The cells were counted, and suspended in 1 mL of culture medium. A representative sample of 190 uL was pipetted into the new Eppendorf tubes and 10 µL of Solution 5 (which contains acridine orange (AO) that stains all nucleated cells; PI which stains dead cells only; and VitaBright-48 TM ([…]) which stains viable cells in an intensity-dependent manner reliant on the level of thiols) was added to the cell suspension. Next, the stained cells were loaded into 8-chamber NC-Slides A8™ (Chemometec., Lillerød, Denmark) and measured using the Vitality (VB-48) Assay protocol in the NC-3000 image cytometer. The experiment was performed three times with three replicates.

[3] = tested on: gastric cancer cell line MKN74; design: method as in PMID 22741788; conditions: MKN74 gastric cancer cells ref 9; cited from earlier work
melanoma line G-361 [4] = assay: Annexin V / propidium iodide apoptosis assay (image cytometry); format: cell-based, human; conditions: G-361, 24 h, compound at IC50 concentration, representative histogram
Experimental: Cell apoptosis assays were performed using an NC 3000 system (Chemometec., Lillerød, Denmark) according to the manufacturer’s protocol for the Annexin V Assay. The G-361 cells were seeded in 6-well plates at a density of 2 × 10^5 cells/mL and the tested compounds with concentration IC50 were added when 70–80% of confluence was achieved. After 24 h incubation, cells were suspended in 100 μL of Annexin V binding buffer with 2 µL of Annexin V-CF488A conjugate (FITC-labeled annexin V) and 2 µL of Solution 15 (Hoechst33342 stains). In the next step, the cells were incubated for 15 min at 37 °C and subsequently centrifuged at 400× g for 5 min. Following the removal of the supernatant, the cell pellets were resuspended in 300 µL of Annexin V binding buffer and centrifuged twice under the conditions described above. Eventually, the cell pellets were resuspended in 100 µL of Annexin V binding buffer and 2 µL of Solution 16 (propidium iodide, which stains late apoptotic and necrotic cells) was added. The prepared samples were analyzed immediately using 2-chamber NC-Slides A2™ (Chemometec., Lillerød, Denmark) and the Annexin V Assay protocol. The obtained scatterplots were used to demarcate the percentage of healthy cells and early and late apoptotic cells. The experiment was performed three times with three replicates.

catalase (CAT) = assay: qRT-PCR relative mRNA expression, CAT; format: cell-based, human; conditions: for CAT expression change: G-361; for Relative mRNA expression level CAT (RQ): G-361, 48 h incubation, RQ = 2^-ΔΔCt, mean ± SD, control 1.016
Experimental: (§1) […] cell line was seeded into 6-well plates in the concentration of 4 × 10^5 cells/well. Thiosemicarbazide derivatives were added when 70–80% of confluence was achieved. After 48 h of incubation, 1 mL of TRIzol™ Reagent (Invitrogen, Carlsbad, CA, USA) was added to lyse the cells. Lysates were centrifuged for 5 min at 12,000× g at 4 °C, and clear supernatants were processed according to the manufacturer’s protocol. Then, reverse transcription was performed using NG dART RT-PCR kit (EURx, Gdańsk, Poland) and a Mastercycler gradient thermocycler (Eppendorf, Hamburg, Germany). Thermal profile of the reaction: 10 min at 25 °C, then 50 min at 50 °C, and 5 min at 85 °C. mRNA levels of the genes DHODH, 18SRNA, and BACT were assessed using TaqMan Fast Advanced Master Mix (ThermoFisher, Waltham, MA, USA). mRNA levels of the following genes: CAT, SOD2,18SRNA TBP were assessed using PowerUp SYBR Green Master Mix (ThermoFisher, Waltham, MA, USA) in a 7500 Fast Real-Time PCR System (ThermoFisher, Waltham, MA, USA). Thermal profile of the reactions performed: 20 s at 95 °C, followed by 40 cycles of 3 s at 95 °C and 30 s at 60 °C. The reaction was carried out in triplicates. Relative expression of the tested genes was determined by qRT-PCR and the ΔΔCt method. The statistical analysis was performed with RQ values (relative quantification, RQ = 2^−∆ΔCt).

[5] = tested on: dihydroorotate dehydrogenase (DHODH); assay: qRT-PCR relative mRNA expression, DHODH; format: cell-based, human; conditions: G-361, 48 h incubation, RQ = 2^-ΔΔCt, mean ± SD, control 1.000
Experimental: as §1

[6] = 24 h treatment, BJ normal fibroblasts, concentration range 10-250 µM, read-out: IC50 BJ
[7] = BJ fibroblasts, further analysis, value in parentheses after >250, read-out: IC50 BJ (value in parentheses)

SMILES | toxic to normal fibroblasts (MTT test) [1] | IC50 [1, 6] | IC50 [1, 7] | GSH content analysis, quadrant Q1ll (melanoma line G-361 [2]) | GSH content analysis, quadrant Q1lr (melanoma line G-361 [2]) | GSH content analysis, quadrant Q1ul (melanoma line G-361 [2]) | GSH content analysis, quadrant Q1ur (melanoma line G-361 [2]) | effect on cell cycle [3] | Q1ll, normal cells (melanoma line G-361 [4]) | Q1lr, early apoptotic cells (melanoma line G-361 [4]) | Q1ul, necrotic cells (melanoma line G-361 [4]) | Q1ur, late apoptotic cells (melanoma line G-361 [4]) | CAT expression change (catalase (CAT)) | Relative mRNA expression level CAT (RQ) (catalase (CAT)) | Relative mRNA expression level DHODH (RQ) [5] | IC50 ([1]; Homo sapiens, Fibroblast, 24 h treatment, BJ normal fibroblasts, concentration range 10-250 µM, read-out: IC50 BJ) | IC50 ([1]; Homo sapiens, Fibroblast, BJ fibroblasts, further analysis, value in parentheses after >250, read-out: IC50 BJ (value in parentheses))
O=C(COc1ccc(Cl)cc1Cl)NNC(=S)Nc1cccc2ccccc12 [PK9, 1-(2,4-dichlorophenoxy)acetyl-4-(1-naphtyl)thiosemicarbazide] | not toxic | > 250 µM | 894 µM | 3% | 41% | 26% | 30% | inhibited the cell cycle in S and G2 phases | 32% | 28% | 1% | 39% | reduction | 0.354 ± 0.022 | 0.375 ± 0.018 | – | –
O=C(COc1ccc(Cl)cc1Cl)NNC(=S)Nc1ccccc1I [PK6, 1-(2,4-dichlorophenoxy)acetyl-4-(2-iodophenyl)thiosemicarbazide] | not toxic | > 250 µM | 631 µM | 4% | 46% | 28% | 22% | – | 30% | 17% | 4% | 49% | increased | 2.691 ± 0.127 | 0.824 ± 0.030 | – | –
CSc1ccc(NC(=S)NNC(=O)COc2ccc(Cl)cc2Cl)cc1 [PK2, 1-(2,4-dichlorophenoxy)acetyl-4-(4-metylothiophenyl)thiosemicarbazide] | not toxic | – | – | 3% | 44% | 30% | 23% | – | 52% | 7% | 2% | 39% | reduction | 0.107 ± 0.013 | 0.463 ± 0.016 | > 250 µM | 828 µM
